The values below come from paper PMC4304211 (Bioorganic & medicinal chemistry, 2013).

This assay deals with STAT3 (Homo sapiens, UniProt P40763). Briefly: fluorescence polarization competition, single concentration […]. As to conditions: read-out: % inhibition at 500 μM. The assay is classed as binding.
Sequence of STAT3 (P40763 2-770): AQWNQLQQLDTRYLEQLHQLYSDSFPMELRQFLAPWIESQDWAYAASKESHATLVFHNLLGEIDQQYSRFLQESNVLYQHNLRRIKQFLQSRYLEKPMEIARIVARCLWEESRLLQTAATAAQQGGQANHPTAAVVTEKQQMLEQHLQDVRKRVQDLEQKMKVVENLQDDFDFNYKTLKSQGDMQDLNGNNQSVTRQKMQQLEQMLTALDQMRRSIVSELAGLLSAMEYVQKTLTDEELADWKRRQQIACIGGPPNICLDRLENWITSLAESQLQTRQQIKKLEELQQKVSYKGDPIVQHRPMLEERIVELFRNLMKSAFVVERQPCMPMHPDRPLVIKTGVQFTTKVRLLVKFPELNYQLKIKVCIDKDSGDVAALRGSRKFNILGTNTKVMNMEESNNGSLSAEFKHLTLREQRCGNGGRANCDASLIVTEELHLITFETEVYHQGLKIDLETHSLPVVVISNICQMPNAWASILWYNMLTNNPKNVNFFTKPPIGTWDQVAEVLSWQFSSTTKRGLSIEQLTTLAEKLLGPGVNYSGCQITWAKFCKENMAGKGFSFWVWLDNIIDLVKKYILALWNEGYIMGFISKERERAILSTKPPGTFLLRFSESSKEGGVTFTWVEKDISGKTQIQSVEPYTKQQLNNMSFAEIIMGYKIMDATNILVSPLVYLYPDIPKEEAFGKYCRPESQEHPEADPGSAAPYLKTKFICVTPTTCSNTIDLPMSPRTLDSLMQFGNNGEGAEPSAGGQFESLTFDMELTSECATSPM

What is called inhibition is the share of the control response that was lost under treatment. Turning to `O=C1C=C(SCCO)C(=O)c2c(O)cccc21` [PD10, 8-Hydroxy-2-((2-hydroxyethyl)thio)naphthalene-1,4-dione], the inhibition at 500 µM is greater than 50%.
In the case of `NS(=O)(=O)c1cccc2c1C(=O)C=C(SCCO)C2=O` [PD11, 6-((2-Hydroxyethyl)thio)-5,8-dioxo-5,8-dihydronaphthalene-1-sulfonamide], the inhibition at 500 µM was greater than 50%.
